The record followed here is patent US11377469B2, “CD73 inhibitors” (ORIC Pharmaceuticals, Inc., priority 2017, dated 2022).

Each structure is given as a SMILES string. A value given as a limit tells only on which side of the number the result lay.

Sequence of CD73 (P21589 27-574): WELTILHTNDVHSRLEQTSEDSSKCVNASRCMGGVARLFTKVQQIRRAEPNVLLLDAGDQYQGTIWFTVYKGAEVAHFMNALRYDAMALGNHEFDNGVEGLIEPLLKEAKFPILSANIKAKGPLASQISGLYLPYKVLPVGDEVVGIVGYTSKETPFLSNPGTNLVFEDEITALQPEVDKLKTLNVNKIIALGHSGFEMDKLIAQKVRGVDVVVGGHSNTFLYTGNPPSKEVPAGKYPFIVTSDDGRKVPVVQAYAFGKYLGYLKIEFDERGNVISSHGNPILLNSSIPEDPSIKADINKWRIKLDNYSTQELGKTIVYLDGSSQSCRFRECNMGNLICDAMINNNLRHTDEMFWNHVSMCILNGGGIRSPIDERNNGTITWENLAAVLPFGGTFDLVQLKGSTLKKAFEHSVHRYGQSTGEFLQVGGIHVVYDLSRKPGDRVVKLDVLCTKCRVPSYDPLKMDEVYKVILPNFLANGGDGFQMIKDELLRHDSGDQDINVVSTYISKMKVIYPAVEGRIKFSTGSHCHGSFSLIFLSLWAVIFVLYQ

The test has as its target CD73 (Homo sapiens (Human), UniProt P21589). In words: Biochemical Assay (CD73 inhibition, AMP hydrolysis, Malachite Green readout). The note with it: CD73 0.3208 nM, AMP 15 μM, Tris-HCl pH 7.4, Malachite Green absorbance.
Usually IC50 stands for the point on the concentration scale where inhibition reaches its midpoint. The low end stands for higher potency, the high end for lower potency. As for `O=P(O)(O)CS(=O)(=O)C[C@H]1O[C@@H](n2nnc3c(N[C@H]4CCc5ccccc54)nc(Cl)nc32)[C@H](O)[C@@H]1O` [Example 130, (((((2S,3S,4R,5R)-5-(5-chloro-7-(((S)-2,3-dihydro-1H-inden-1-yl)amino)-3H-[1,2,3]triazolo[4,5-d]pyrimidin-3-yl)-3,4-dihydroxytetrahydrofuran-2-yl)methyl)sulfonyl)methyl)phosphonic acid], the IC50 is at most 500 nM.
For `CN(c1nc(Cl)nc2c1cnn2[C@@H]1O[C@H](CCP(=O)(O)O)[C@@H](O)[C@H]1O)[C@H]1CCc2ccccc21` [Example 4, (2-((2R,3S,4R,5R)-5-(6-Chloro-4-(((S)-2,3-dihydro-1H-inden-1-yl)(methyl)amino)-1H-pyrazolo[3,4-d]pyrimidin-1-yl)-3,4-dihydroxytetrahydrofuran-2-yl)ethyl)phosphonic acid] the value was over 1000 nM; for `CCNc1nc(Cl)nc2c1cnn2[C@@H]1O[C@H](COCP(=O)(O)O)[C@@H](O)[C@H]1O` [Example 43, ((((2R,3S,4R,5R)-5-(6-chloro-4-(ethylamino)-1H-pyrazolo[3,4-d]pyrimidin-1-yl)-3,4-dihydroxytetrahydrofuran-2-yl)methoxy)methyl)phosphonic acid], at most 500 nM; for `O=P(O)(O)CS(=O)(=O)C[C@H]1O[C@@H](n2nnc3c(NCc4ccccc4Cl)nc(Cl)nc32)[C@H](O)[C@@H]1O` [Example 118, (((((2S,3S,4R,5R)-5-(5-chloro-7-((2-chlorobenzyl)amino)-3H[1,2,3]triazolo[4,5-d]pyrimidin-3-yl)-3,4-dihydroxytetrahydrofuran-2-yl)methyl)sulfonyl)methyl)phosphonic acid], at most 500 nM.
The result for `C[C@H](Nc1nc(Cl)nc2c1cnn2[C@@H]1O[C@H](COCP(=O)(O)O)[C@@H](O)[C@H]1O)C1CC1` [Example 91, ((((2R,3S,4R,5R)-5-(6-chloro-4-(((S)-1-cyclopropylethyl)amino)-1H-pyrazolo[3,4-d]pyrimidin-1-yl)-3,4-dihydroxytetrahydrofuran-2-yl)methoxy)methyl)phosphonic acid] reads at most 500 nM; that for `O=P(O)(O)CS(=O)(=O)C[C@H]1O[C@@H](n2nnc3c(NCc4cccc(Cl)c4)nc(Cl)nc32)[C@H](O)[C@@H]1O` [Example 122], at most 500 nM.
The result for `O=P(O)(O)COC[C@H]1O[C@@H](n2ncc3c(NC4CC(F)(F)C4)nc(Cl)nc32)[C@H](O)[C@@H]1O` [Example 87, ((((2R,3S,4R,5R)-5-(6-chloro-4-((3,3-difluorocyclobutyl)amino)-1H-pyrazolo[3,4-d]pyrimidin-1-yl)-3,4-dihydroxytetrahydrofuran-2-yl)methoxy)methyl)phosphonic acid] reads at most 500 nM.
Molecule `C[C@H]1CCC[C@H]1Nc1nc(Cl)nc2c1cnn2[C@@H]1O[C@H](CS(=O)(=O)CP(=O)(O)O)[C@@H](O)[C@H]1O` [Example 134, (((((2S,3S,4R,5R)-5-(6-chloro-4-(((1R,2S)-2-methylcyclopentyl)amino)-1H-pyrazolo[3,4-d]pyrimidin-1-yl)-3,4-dihydroxytetrahydrofuran-2-yl)methyl)sulfonyl)methyl)phosphonic acid] registered an IC50 of at most 500 nM.
The result for `O=P(O)(O)CS(=O)(=O)C[C@H]1O[C@@H](n2cnc3c(NC4CCCC4)nc(Cl)nc32)[C@H](O)[C@@H]1O` [Example 112, (((((2S,3S,4R,5R)-5-(2-chloro-6-(cyclopentylamino)-9H-purin-9-yl)-3,4-dihydroxytetrahydrofuran-2-yl)methyl)sulfonyl)methyl)phosphonic acid] reads at most 500 nM; that for `O=P(O)(O)CS(=O)(=O)C[C@H]1O[C@@H](n2ncc3c(NCc4ccc(Cl)cc4)nc(Cl)nc32)[C@H](O)[C@@H]1O` [Example 127, (((((2S,3S,4R,5R)-5-(6-chloro-4-((4-chlorobenzyl)amino)-1H-pyrazolo[3,4-d]pyrimidin-1-yl)-3,4-dihydroxytetrahydrofuran-2-yl)methyl)sulfonyl)methyl)phosphonic acid], at most 500 nM; that for `O=P(O)(O)COC[C@H]1O[C@@H](n2ncc3c(NCc4cccc(C(F)(F)F)c4)nc(Cl)nc32)[C@H](O)[C@@H]1O` [Example 32, ((((2R,3S,4R,5R)-5-(6-chloro-4-((3-(trifluoromethyl)benzyl)amino)-1H-pyrazolo[3,4-d]pyrimidin-1-yl)-3,4-dihydroxytetrahydrofuran-2-yl)methoxy)methyl)phosphonic acid], at most 500 nM.
For `Cn1ncc2cccc(CNc3nc(Cl)nc4c3cnn4[C@@H]3O[C@H](COCP(=O)(O)O)[C@@H](O)[C@H]3O)c21` [Example 48, ((((2R,3S,4R,5R)-5-(6-chloro-4-(((1-methyl-1H-indazol-7-yl)methyl)amino)-1H-pyrazolo[3,4-d]pyrimidin-1-yl)-3,4-dihydroxytetrahydrofuran-2-yl)methoxy)methyl)phosphonic acid] the value was at most 500 nM; for `O=P(O)(O)COC[C@H]1O[C@@H](n2ncc3c(NC4CCCCC4)nc(Cl)nc32)[C@H](O)[C@@H]1O` [Example 93, ((((2R,3S,4R,5R)-5-(6-chloro-4-(cyclohexylamino)-1H-pyrazolo[3,4-d]pyrimidin-1-yl)-3,4-dihydroxytetrahydrofuran-2-yl)methoxy)methyl)phosphonic acid], at most 500 nM; for `COP(=O)(CP(=O)(O)O)OC[C@H]1O[C@@H](n2nnc3c(NC4CCCC4)nc(Cl)nc32)[C@H](O)[C@@H]1O` (stereo partly drawn) [Example 106, (((((2R,3S,4R,5R)-5-(5-chloro-7-(cyclopentylamino)-3H-[1,2,3]triazolo[4,5-d]pyrimidin-3-yl)-3,4-dihydroxytetrahydrofuran-2-yl)methoxy)(methoxy)phosphoryl)methyl) phosphonic acid], at most 500 nM.
In the case of `O=P(O)(O)CS(=O)(=O)NC[C@H]1O[C@@H](n2ncc3c(NCc4ccccc4Cl)nc(Cl)nc32)[C@H](O)[C@@H]1O` [Example 3, ((N-(((2R,3S,4R,5R)-5-(6-Chloro-4-((2-chlorobenzyl)amino)-1H-pyrazolo[3,4-d]pyrimidin-1-yl)-3,4-dihydroxytetrahydrofuran-2-yl)methyl)sulfamoyl)methyl)phosphonic acid], the IC50 was at most 500 nM.
For `CN(Cc1ccccc1)c1nc(Cl)nc2c1cnn2[C@@H]1O[C@H](COCCP(=O)(O)O)[C@@H](O)[C@H]1O` [Example 5, (2-(((2R,3S,4R,5R)-5-(4-(Benzyl(methyl)amino)-6-chloro-1H-pyrazolo[3,4-d]pyrimidin-1-yl)-3,4-dihydroxytetrahydrofuran-2-yl)methoxy)ethyl)phosphonic acid], the IC50 was over 1000 nM.
For `O=P(O)(O)COC[C@H]1O[C@@H](n2ncc3c(NCC4CCCC4)nc(Cl)nc32)[C@H](O)[C@@H]1O` [Example 124, ((((2R,3S,4R,5R)-5-(6-chloro-4-((cyclopentylmethyl)amino)-1H-pyrazolo[3,4-d]pyrimidin-1-yl)-3,4-dihydroxytetrahydrofuran-2-yl)methoxy)methyl)phosphonic acid] the value was at most 500 nM; for `CN(C[C@H]1O[C@@H](n2ncc3c(NC4CCCC4)nc(Cl)nc32)[C@H](O)[C@@H]1O)S(=O)(=O)CP(=O)(O)O` [Example 98, ((N-(((2R,3S,4R,5R)-5-(6-Chloro-4-(cyclopentylamino)-1H-pyrazolo[3,4-d]pyrimidin-1-yl)-3,4-dihydroxytetrahydrofuran-2-yl)methyl)-N-methylsulfamoyl)methyl)phosphonic acid], at most 500 nM.
